According to patent publication US20140199380A1, “PHARMACEUTICAL COMPOSITION COMPRISING AN ALGAE ADAPTED TO INCREASE THE EFFICACY OF AN ENZYMATIC INHIBITOR” (priority 2010, published 2014):

Columns and labels:
[1] = Plasma concentration of Tadalafil after a single dose (pharmacokinetics, FIG. 1); conditions: male, human, in vivo, 20 mg
Method: In both cases, a single dose of a pharmaceutical composition equivalent to 20 mg of tadalafil was administered to a test population of otherwise healthy subjects suffering from ED and the plasma concentration of Tadalafil was measured at intervals following the administration.

[2] = tadalafil as normally administered, typical value; cited from earlier work

CN1CC(=O)N2[C@H](c3ccc4c(c3)OCO4)c3[nH]c4ccccc4c3C[C@@H]2C1=O [Tadalafil, (6R,12aR)-6-(1,3-benzodioxol-5-yl)-2,3,6,7,12,12a-hexahydro-2-methylpyrazino[1′,2′:1,6]pyrido[3,4-b]indole-1,4-dione]
half-life [1]: 1050 min | Half-life in the body [2]: 17.5 h
